In patent US11434205B2, “Substituted imidazole carboxylate derivatives and the use thereof” (priority 2018, dated 2022):
Several values for one entry are separate records, joined by “and”; a condition that tells them apart may be missing. Equal values may be shown once. Entries after “also recorded” stand apart in the source; their conditions may differ. Read-outs that look alike come from different tables or passages of the source. Marks after values point to notes of the source that are not given here.

Experiments:
rats [1] = assay: Pharmacological characteristics at equivalent doses (2×ED50) in rats; conditions: 2×ED50, tail vein; for Adverse reactions: Red urine (incidence): DMSO solution (DMSO alone 10/10); for Adverse reactions: Tremor (incidence): animals affected/animals; for Onset time: time of LORR
Description: Comparison of Pharmacological Characteristics of the Compounds at Equivalent Doses (2×ED50) in Rats
Adult male Sprague-Dawley rats (250-300 g) were selected for the experiment (n=8). […] The drugs were administered at a dose twice their ED50 through the tail vein of rats in a volume of 0.6 mL and at a rate of 0.1 mL/s. In addition, the time of LORR was recorded as the onset time of anesthesia. […] Furthermore, the duration of the pharmacological effects is sufficient to meet the time requirements for rapid induction of general anesthesia and for diagnostic examinations, some short invasive clinical examinations, or operations.

rats [2] = assay: Loss of righting reflexes (LORR) assay in rats, ED50 by up and down method; type: in vivo, rat; conditions: tail vein; for ED50: Rattus norvegicus
Description: The Anesthetic Activity of the Compounds was Assessed in Rats Using a Loss of Righting Reflexes (LORR) Assay
(§1) Adult male Sprague-Dawley rats (250-300 g) were selected for the experiment. […] The anesthesia effects of the compounds were assessed in rats using a LORR assay and a period >30 s was considered as an indicator of general anesthesia. Then the up and down method was used to determine 50% effective dose (ED50). The drugs were administered through the tail vein of rats in a volume of 0.6 mL and at a rate of 0.1 mL/s.

rats [3] = type: in vivo, rat; conditions: for recovery time of the test animals' righting reflex: rats of the MAP/HR figures, 2×ED50, tail vein, same value in min
Description: The Effects of the Compounds on the Circulatory Function were Measured in Rats Using a Small Animal Implanted Physiological Signal Telemetry System
The anesthetic activity of the compounds was assessed in rats using a LORR assay and the up and down method was used to determine ED50. […] A small animal implantable physiological signal telemetry system from DSI (Data Science International, Inc.) was used to measure the changes in heart rate (HR) and blood pressure in rats during 30 min after administration. Then mean arterial pressure (MAP) and HR were used as representative indicators to determine hemodynamic stability of the compounds of the present invention in rats.
A small animal implantable physiological signal telemetry system from DSI (Data Science International, Inc.) including implants (RATHD-521, DSI, United States), receiver boards (RPC-1, DSI, United States), signal conversion devices (DEM, DSI, USA), perfusion glue (DSI, USA), fibrin membrane (DSI, USA), etc.
First, animal models were established. A left ventricular catheter, an abdominal aortic catheter and ECG wires were placed into rats. At least one week after surgery, data were recorded.
Administration procedure: rats were put into a restraint device with a 20 G indwelling catheter placed into a lateral tail vein. After administration of 0.2 mL heparin, a pre-filled extension tube was attached and taped to the tail vein to secure the extension tube. Then the rats were removed from the restraint device to a cage before placing them together on the signal receiver. […] Finally, the pharmacological effects, adverse reactions, and behavioural manifestations of the rats were observed and recorded
Data collection: After setting the data collection parameters on the software, the power of the implant was turned on to start data collection. In this experiment, data recording frequency was set to 15 s. Data collection was continuously recorded for 30 min before and after administration of the drugs in rats. After data acquisition, the test was stopped.

rats [4] = type: in vivo, rat; conditions: rats of the MAP/HR figures, 2×ED50, tail vein
rats [5] = system: rats
Description: as §1

rats [6] = system: rats; remark: listed apart in the source
Description: Pharmacological Effects of the Compounds on Continuous Infusion in Rats
Adult male Sprague-Dawley rats with body weight ranging from 250 to 300 gm were selected for continuous infusion test. […] Time to recovery of righting reflex from stopping infusion, and time to fully awake from stopping infusion were recorded.

[7] = system: secretion of corticosterone, H295R cell line; assay: cells; type: cell-based; conditions: for EC50: read-out: EC50 (Corticosterone)
Description: (§2) The Effects of the Compounds on Adrenocortical Function In Vitro Test
(§3) Then secretion of the cortisol and corticosterone in the supernatant, was measured using HPLC-MS/MS method to determine whether the compounds of the present invention had adrenotoxic potential.

[8] = system: secretion of cortisol, H295R cell line; assay: cells; type: cell-based; conditions: for EC50: read-out: EC50 (Cortisol)
Description: as §2, §3

[9] = continuous tail vein infusion at 2×MIR, LORR maintained 1 hour, Table C4
[10] = continuous tail vein infusion at 2×MIR, LORR maintained 1 hour, Table D4
[11] = continuous tail vein infusion at 2×MIR, LORR maintained 1 hour, Table E4
[12] = H295R cell line, 0.1-10000 nM, HPLC-MS/MS, Table D3
[13] = H295R cell line, 0.1-10000 nM, HPLC-MS/MS, Table E3
[14] = H295R, 0.1-10000 nM, HPLC-MS/MS

CC(=O)C1(OC(=O)c2cncn2[C@H](C)c2ccccc2)CC1 [Compound C1]
Righting reflex duration (rats [1]): 1.9 ± 0.64 min | Adverse reactions: Red urine (incidence) (rats [1]): (8/8) | Adverse reactions: Tremor (incidence) (rats [1]): Tremor (8/8), Red urine | Onset time (rats [1]): 0.15 ± 0.09 min | ED50 (rats [2]; class symbols): 0.01 to 0.1 mg/kg | recovery time of the test animals' righting reflex (rats [3]): 2.17 min | recovery time of the test animals' righting reflex (rats [4]): 130 s | Approximate therapeutic index (rats [5]): >90 | Minimal lethal dose (rats [5]): >20 mg/kg

C[C@H](c1ccccc1)n1cnc(F)c1C(=O)OCC(C)(C)C [Compound E26]
Righting reflex duration (rats [1]): 1.45 ± 0.41 min | Sedation duration (mg/kg) (rats [1]): 6.37 ± 1.31 | Adverse reactions: Red urine (incidence) (rats [1]): (8/8) | Onset time (rats [1]): 0.48 ± 0.09 min | ED50 (mg/kg) (rats [2]; class symbols): A (A indicates that the measured ED50 is in the range of 0.01-0.10 mg/kg (including 0.01 and 0.10 mg/kg).) | recovery time of the test animals' righting reflex (rats [3]): 1.57 min | recovery time of the test animals' righting reflex (rats [4]): 94 s | Approximate therapeutic index (rats [5]): >50 | Minimal lethal dose (rats [5]): >4 mg/kg

C=CC#CC(C)OC(=O)c1c(F)ncn1[C@H](C)c1ccccc1 (some centres unmarked) [Compound E20]
Adverse reactions: Tongue stretching (incidence) (rats [1]): (2/8), | Righting reflex duration (rats [1]): 0.75 ± 0.21 min | Adverse reactions: Red urine (incidence) (rats [1]): (8/8) | Onset time (rats [1]): 0.51 ± 0.16 min | ED50 (rats [2]; class symbols): 0.01 to 0.1 mg/kg | recovery time of the test animals' righting reflex (rats [3]): 0.85 min | recovery time of the test animals' righting reflex (rats [4]): 51 s | Approximate therapeutic index (rats [5]): >80 | Minimal lethal dose (rats [5]): >5 mg/kg

CCCC(C)(C)OC(=O)c1c(F)ncn1[C@H](C)c1ccccc1 [Compound E29]
Righting reflex duration (rats [1]): 2.74 ± 2.63 min | Adverse reactions: Red urine (incidence) (rats [1]): (8/8) | Onset time (rats [1]): 0.48 ± 0.21 min | ED50 (rats [2]; class symbols): 0.1 to 0.5 mg/kg | recovery time of the test animals' righting reflex (rats [3]): 2.75 min | recovery time of the test animals' righting reflex (rats [4]): 165 s | Approximate therapeutic index (rats [5]): >15 | Minimal lethal dose (rats [5]): >6 mg/kg

CCC(C)(C)OC(=O)c1c(F)ncn1[C@H](C)c1ccccc1 [Compound E28]
Righting reflex duration (rats [1]): 2.69 ± 1.07 min | Adverse reactions: Red urine (incidence) (rats [1]): (8/8) | Onset time (rats [1]): 0.43 ± 0.19 min | ED50 (rats [2]; class symbols): 0.1 to 0.5 mg/kg | recovery time of the test animals' righting reflex (rats [3]): 2.5 min | recovery time of the test animals' righting reflex (rats [4]): 150 s | Approximate therapeutic index (rats [5]): >16 | Minimal lethal dose (rats [5]): >6 mg/kg

CC(C)OC(=O)c1c(F)ncn1[C@H](C)c1ccccc1 [Compound E24]
Righting reflex duration (rats [1]): 1.00 ± 0.29 min | Adverse reactions: Red urine (incidence) (rats [1]): (8/8) | Onset time (rats [1]): 0.38 ± 0.14 min | ED50 (rats [2]; class symbols): 0.01 to 0.1 mg/kg | recovery time of the test animals' righting reflex (rats [3]): 1.25 min | recovery time of the test animals' righting reflex (rats [4]): 75 s | Approximate therapeutic index (rats [5]): >45 | Minimal lethal dose (rats [5]): >4 mg/kg

C=C=CC1(OC(=O)c2cncn2[C@H](C)c2ccccc2)CCOCC1 [Compound D34]
Righting reflex duration (rats [1]): 4.50 ± 0.86 min | Adverse reactions: Red urine (incidence) (rats [1]): Red urine (8/8) | Onset time (rats [1]): 0.11 ± 0.04 min | ED50 (rats [2]; class symbols): 0.5 to 1 mg/kg | recovery time of the test animals' righting reflex (rats [3]): 2.83 min | recovery time of the test animals' righting reflex (rats [4]): 170 s | Approximate therapeutic index (rats [5]): >13 | Minimal lethal dose (rats [5]): >8 mg/kg

COC(=O)C1(OC(=O)c2cncn2[C@H](C)c2ccccc2)CC1 [CPMM, cyclopropyl methoxycarbonyl methylate, reference compound]
Adverse reactions: Convulsions (incidence) (rats [1]): Convulsions (4/10), Tremor and 4/10 and Convulsions (4/10), and (4/10), | Adverse reactions: Myoclonus (incidence) (rats [1]): (5/10), Myoclonus (5/10); also recorded: Myoclonus (5/10) | Righting reflex duration (rats [1]): 1.62 ± 0.63 min | Adverse reactions: Tremor (incidence) (rats [1]): (5/10), Myoclonus (5/10) and 5/10 and Tremor (5/10), and (5/10), | Onset time (rats [1]): 0.26 ± 0.08 min | ED50 (mg/kg) (rats [2]; brackets = 95% confidence limit): 0.78 (0.74-0.82)* mg/kg | effect on the circulatory function (MAP, HR) (rats [3]; rats, 2×ED50, 30 min after administration): almost no inhibitory effect on the circulatory function | Recovery time after stopping infusion (rats [6]; after 1 hour infusion at 2×MIR): 7 to 8 min | Adverse reactions: Convulsions (incidence) (rats [6]; continuous infusion 2×MIR): 3/6 | Adverse reactions: Myoclonus (incidence) (rats [6]; continuous infusion 2×MIR): Myoclonus (5/6) | Adverse reactions: Tremor (incidence) (rats [6]; continuous infusion 2×MIR): 5/6 | Onset time (rats [6]; [9]): 3 to 4 min | Recovery time after stopping infusion (rats [6]; [9]): 7 to 8 min | Onset time (rats [6]; [10]): 3 to 4 min | Recovery time after stopping infusion (rats [6]; [10]): 7 to 8 min | Onset time (rats [6]; [11]): 3 to 4 min | Recovery time after stopping infusion (rats [6]; [11]): 7 to 8 min | Onset time (rats [6]; emulsion, continuous infusion at 2×MIR): 3 to 4 min | Corticosterone as an indicator to determine the presence of inhibition [7, 12]: 1 | EC50 [7, 12]: > 100 nM | Corticosterone as an indicator to determine the presence of inhibition [7, 13]: 1 | EC50 [7, 13]: > 100 nM | EC50 [7, 14]: > 100 nM | Corticosterone as an indicator to determine the presence of inhibition ([7]; H295R, Table A3): 1 | Corticosterone as an indicator to determine the presence of inhibition ([7]; H295R, Table B3): 1 | Corticosterone as an indicator to determine the presence of inhibition ([7]; H295R, Table C3): 1 | Cortisol as an indicator to determine the presence of inhibition [8, 12]: 1 | EC50 [8, 12]: > 10 nM | Cortisol as an indicator to determine the presence of inhibition [8, 13]: 1 | EC50 [8, 13]: > 10 nM | EC50 [8, 14]: > 10 nM | Cortisol as an indicator to determine the presence of inhibition ([8]; H295R, Table A3): 1 | Cortisol as an indicator to determine the presence of inhibition ([8]; H295R, Table B3): 1 | Cortisol as an indicator to determine the presence of inhibition ([8]; H295R, Table C3): 1 | Approximate therapeutic index (rats [5]): >10 | Minimal lethal dose (rats [5]): >7.8 mg/kg
